Experimental data: patent US7238701B2, “Substituted tetrahydrobenzothienopyrimidinamine compounds useful for treating hyper-proliferative disorders” (Bayer Pharmaceuticals Corporation, priority 2003, dated 2007)

Experiments:
[1] = tested on: A431cells (human epidermoid carcinoma); assay: In vitro tumor cell proliferation assay (Cell Titer-Glo luminescent cell viability), A431 cells; format: cell-based; details: A-431, 72 h, 72 hours drug exposure, 10% Fetal Bovine Serum, ATP luminescence readout, read-out: IC50 (50% inhibition of cell proliferation)
Outline: (§1)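 ATP luminescence (CellTiter-Glo) measured proliferation after 72 h compound exposure at 37 °C, giving IC50 values. Serial dilutions spanning 64 pM–100 μM in 0.1% DMSO were applied one day after plating 2.5×10^3 cells/well in RPMI plus 10% fetal bovine serum.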

[2] = tested on: BT474 (human breast carcinoma); assay: In vitro tumor cell proliferation assay (Cell Titer-Glo luminescent cell viability), BT474 cells; format: cell-based; details: BT-474, 72 hours drug exposure, 10% Fetal Bovine Serum, ATP luminescence readout, read-out: IC50 (50% inhibition of cell proliferation)
Outline: as §1

IC50 [1] [µM] | IC50 [2] [µM] | SMILES
< 50 | < 5 | N#Cc1ccc(N2CCN(CCC3CCc4c(sc5ncnc(Nc6ccc(OCc7cccc(F)c7)c(Cl)c6)c45)C3)CC2)cc1 (centres unmarked) [Example 172, 4-(4-{2-[4-({3-chloro-4-[(3-fluorobenzyl)oxy]phenyl}amino)-5,6,7,8-tetrahydro[1]benzothieno[2,3-d]pyrimidin-7-yl]ethyl}piperazin-1-yl)benzonitrile]
< 5 | < 5 | CNCCC1CCc2c(sc3ncnc(Nc4ccc(OCc5cccc(F)c5)c(Cl)c4)c23)C1 (centres unmarked) [Example 169, N-{3-chloro-4-[(3-fluorobenzyl)oxy]phenyl}-7-[2-(methylamino)ethyl]-5,6,7,8-tetrahydro[1]benzothieno[2,3-d]pyrimidin-4-amine]
< 5 | < 5 | Fc1cccc(COc2ccc(Nc3ncnc4sc5c(c34)CCC(CCN3CCN(Cc4ccncc4)CC3)C5)cc2Cl)c1 (centres unmarked) [Example 171, N-{3-chloro-4-[(3-fluorobenzyl)oxy]phenyl}-7-{2-[4-(pyridin-4-ylmethyl)piperazin-1-yl]ethyl}-5,6,7,8-tetrahydro[1]benzothieno[2,3-d]pyrimidin-4-amine]
< 50 | < 5 | CN1CCN(CCC2CCc3c(sc4ncnc(Nc5ccc6c(cnn6Cc6ccccc6)c5)c34)C2)CC1 (centres unmarked) [Example 227, N-(1-benzyl-1H-indazol-5-yl)-7-[2-(4-methylpiperazin-1-yl)ethyl]-5,6,7,8-tetrahydro[1]benzothieno[2,3-d]pyrimidin-4-amine]
< 50 | < 50 | O=C(CC1CCc2c(sc3ncnc(Nc4ccc(OCc5ccc(F)cc5)c(Cl)c4)c23)C1)N1CCCC1 (centres unmarked) [Example 149, N-{3-chloro-4-[(4-fluorobenzyl)oxy]phenyl}-7-(2-oxo-2-pyrrolidin-1-ylethyl)-5,6,7,8-tetrahydro[1]benzothieno[2,3-d]pyrimidin-4-amine]
< 50 | < 50 | COCCNC(=O)C1CCc2c(sc3ncnc(Nc4ccc(Br)cc4F)c23)C1 (centres unmarked) [Example 23, 4-[(4-bromo-2-fluorophenyl)amino]-N-(2-methoxyethyl)-5,6,7,8-tetrahydro[1]benzothieno[2,3-d]pyrimidin-7-carboxamide]
< 5 | < 5 | Cc1ccc(Oc2ccc(Nc3ncnc4sc5c(c34)CCC(CCN3CCN(C)CC3)C5)cc2C)cn1 (centres unmarked) [Example 224, N-{3-methyl-4-[(6-methylpyridin-3-yl)oxy]phenyl}-7-[2-(4-methylpiperazin-1-yl)ethyl]-5,6,7,8-tetrahydro[1]benzothieno[2,3-d]pyrimidin-4-amine]
< 50 | < 50 | OCCC1CCc2c(sc3ncnc(Nc4cccc(Br)c4)c23)C1 (centres unmarked) [Example 102, 2-{4-[(3-bromophenyl)amino]-5,6,7,8-tetrahydro[1]benzothieno[2,3-d]pyrimidin-7-yl}ethanol]
< 50 | < 50 | COc1ccc(N2CCN(C(=O)C3CCc4c(sc5ncnc(Nc6cccc(Br)c6)c45)C3)CC2)cc1 (centres unmarked) [Example 49, N-(3-bromophenyl)-7-{[4-(4-methoxyphenyl)-1-piperazinyl]carbonyl}-5,6,7,8-tetrahydro[1]benzothieno[2,3-d]pyrimidin-4-amine]
< 5 | < 5 | CN(C)CCNCCC1CCc2c(sc3ncnc(Nc4ccc(OCc5ccccn5)c(Cl)c4)c23)C1 (centres unmarked) [Example 184, N′-[2-(4-{[3-chloro-4-(pyridin-2-ylmethoxy)phenyl]amino}-5,6,7,8-tetrahydro[1]benzothieno[2,3-d]pyrimidin-7-yl)ethyl]-N,N-dimethylethane-1,2-diamine]
< 50 | < 5 | CNCCC1CCc2c(sc3ncnc(Nc4ccc(OCc5ccccn5)c(Cl)c4)c23)C1 (centres unmarked) [Example 187, N-[3-chloro-4-(pyridin-2-ylmethoxy)phenyl]-7-[2-(methylamino)ethyl]-5,6,7,8-tetrahydro[1]benzothieno[2,3-d]pyrimidin-4-amine]
< 50 | < 5 | CCOC(=O)CC1CCc2c(sc3ncnc(Nc4ccc(OCc5ccc(F)cc5)c(Cl)c4)c23)C1 (centres unmarked) [Example 143, ethyl [4-({3-chloro-4-[(4-fluorobenzyl)oxy]phenyl}amino)-5,6,7,8-tetrahydro[1]benzothieno[2,3-d]pyrimidin-7-yl]acetate]
< 50 | < 50 | CCOC(=O)C1CCc2c(sc3ncnc(Nc4ccc(F)c(Cl)c4)c23)C1 (centres unmarked) [Example 24, ethyl 4-[(3-chloro-4-fluorophenyl)amino]-5,6,7,8-tetrahydro[1]benzothieno[2,3-d]pyrimidine-7-carboxylate]
< 50 | < 5 | N#Cc1ccc(N2CCN(C(=O)C3CCc4c(sc5ncnc(Nc6cccc(Br)c6)c45)C3)CC2)cc1 (centres unmarked) [Example 48, 4-[4-({4-[(3-bromophenyl)amino]-5,6,7,8-tetrahydro[1]benzothieno[2,3-d]pyrimidin-7-yl}carbonyl)-1-piperazinyl]benzonitrile]
< 5 | < 5 | Brc1cccc(Nc2ncnc3sc4c(c23)CCC(CCN2CCCC2)C4)c1 (centres unmarked) [Example 85, N-(3-bromophenyl)-7-[2-(1-pyrrolidinyl)ethyl]-5,6,7,8-tetrahydro[1]benzothieno[2,3-d]pyrimidin-4-amine]
< 5 | < 5 | CS(=O)(=O)CCNCCC1CCc2c(sc3ncnc(Nc4ccc(F)c(Cl)c4)c23)C1 (centres unmarked) [Example 97, N-(3-chloro-4-fluorophenyl)-7-(2-{[(2-methylsulfonyl)ethyl]amino}ethyl)-5,6,7,8-tetrahydro[1]benzothieno[2,3-d]pyrimidin-4-amine]
< 5 | < 5 | COCCNC(=O)CC1CCc2c(sc3ncnc(Nc4cccc(Br)c4)c23)C1 (centres unmarked) [Example 82, 2-{4-[(3-bromophenyl)amino]-5,6,7,8-tetrahydro[1]benzothieno[2,3-d]pyrimidin-7-yl}-N-(2-methoxyethyl)acetamide]
< 50 | < 50 | O=C(CC1CCc2c(sc3ncnc(Nc4cccc(Br)c4)c23)C1)NCCN1CCOCC1 (centres unmarked) [Example 69]
< 5 | < 5 | Brc1cccc(Nc2ncnc3sc4c(c23)CCC(CCNCCN2CCOCC2)C4)c1 (centres unmarked) [Example 78, N-(3-bromophenyl)-7-(2-{[2-(4-morpholinyl)ethyl]amino}ethyl)-5,6,7,8-tetrahydro[1]benzothieno[2,3-d]pyrimidin-4-amine]
< 50 | < 50 | O=C(O)C1CCc2c(sc3ncnc(Nc4ccc(F)c(Cl)c4)c23)C1 (centres unmarked) [Example 20, 4-[(3-chloro-4-fluorophenyl)amino]-5,6,7,8-tetrahydro[1]benzothieno[2,3-d]pyrimidine-7-carboxylic acid]
< 5 | < 5 | Fc1ccc(Nc2ncnc3sc4c(c23)CCC(CCN2CCCC2)C4)cc1Cl (centres unmarked) [Example 74, N-(3-chloro-4-fluorophenyl)-7-[2-(1-pyrrolidinyl)ethyl]-5,6,7,8-tetrahydro[1]benzothieno[2,3-d]pyrimidin-4-amine]
< 5 | < 5 | CCNCCC1CCc2c(sc3ncnc(Nc4ccc(OCc5ccccn5)c(Cl)c4)c23)C1 (centres unmarked) [Example 193, N-[3-chloro-4-(pyridin-2-ylmethoxy)phenyl]-7-[2-(ethylamino)ethyl]-5,6,7,8-tetrahydro[1]benzothieno[2,3-d]pyrimidin-4-amine]
